ChEMBL document CHEMBL1152637, “Synthesis and evaluation of non-hydrolyzable D-mannose 6-phosphate surrogates reveal 6-deoxy-6-dicarboxymethyl-D-mannose as a new strong inhibitor of phosphomannose isomerases” (Bioorg Med Chem, 2009)
The source made the active and inactive calls. The rule behind the calls is not given here.

Tests used:
[1] = target: T1, Mannose-6-phosphate isomerase (Escherichia coli (strain K12), UniProt P00946); test: Inhibition of Escherichia coli type I phosphomannose isomerase assessed as D-mannose 6-phosphate to D-fructose 6-phosphate isomerization at pH 7.1 by PGI/G6PDH coupled enzyme spectrophotometric assay
T1 sequence (P00946 whole entry): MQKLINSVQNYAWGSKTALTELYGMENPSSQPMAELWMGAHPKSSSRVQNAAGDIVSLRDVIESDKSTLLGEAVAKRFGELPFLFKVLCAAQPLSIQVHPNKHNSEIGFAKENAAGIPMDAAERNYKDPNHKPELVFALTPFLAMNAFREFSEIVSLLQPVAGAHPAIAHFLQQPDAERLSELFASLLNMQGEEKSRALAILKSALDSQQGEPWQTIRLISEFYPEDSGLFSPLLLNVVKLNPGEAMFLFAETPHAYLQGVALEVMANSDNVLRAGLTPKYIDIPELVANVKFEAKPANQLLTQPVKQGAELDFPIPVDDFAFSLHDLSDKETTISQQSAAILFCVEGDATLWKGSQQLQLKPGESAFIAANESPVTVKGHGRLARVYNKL

[2] = target: T2, Mannose-6-phosphate isomerase (Saccharomyces cerevisiae, UniProt P29952); test: Inhibition of Saccharomyces cerevisiae type I phosphomannose isomerase assessed as D-mannose 6-phosphate to D-fructose 6-phosphate isomerization at pH 7.1 by PGI/G6PDH coupled enzyme spectrophotometric assay
T2 sequence (P29952 whole entry): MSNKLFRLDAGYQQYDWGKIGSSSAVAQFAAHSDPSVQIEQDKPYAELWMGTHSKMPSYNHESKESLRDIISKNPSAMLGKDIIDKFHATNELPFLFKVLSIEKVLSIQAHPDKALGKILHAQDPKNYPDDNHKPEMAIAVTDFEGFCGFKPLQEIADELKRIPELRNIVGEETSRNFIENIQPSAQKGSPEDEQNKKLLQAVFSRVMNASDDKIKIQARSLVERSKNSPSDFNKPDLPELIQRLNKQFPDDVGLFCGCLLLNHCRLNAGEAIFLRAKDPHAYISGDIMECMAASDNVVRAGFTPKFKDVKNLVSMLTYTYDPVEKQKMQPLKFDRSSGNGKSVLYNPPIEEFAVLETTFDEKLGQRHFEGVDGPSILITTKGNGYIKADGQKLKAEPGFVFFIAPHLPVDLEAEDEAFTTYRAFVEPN

[3] = target: T3, Mannose-6-phosphate isomerase (Saccharomyces cerevisiae) (UniProt P29952); test: Competitive inhibition of Saccharomyces cerevisiae type I phosphomannose isomerase assessed as D-mannose 6-phosphate to D-fructose 6-phosphate isomerization at pH 7.1 by PGI/G6PDH coupled enzyme spectrophotometric assay
T3 sequence (whole entry): T2 sequence (P29952 whole entry)

[4] = target: T4, Mannose-6-phosphate isomerase (Escherichia coli (strain K12)) (UniProt P00946); test: Competitive inhibition of Escherichia coli type I phosphomannose isomerase assessed as D-mannose 6-phosphate to D-fructose 6-phosphate isomerization at pH 7.1 by PGI/G6PDH coupled enzyme spectrophotometric assay
T4 sequence (whole entry): T1 sequence (P00946 whole entry)

SMILES | IC50 [1] | IC50 [2] | Ki [2] | Ki [1] | inhibition [3] | inhibition [4]
O=C(O)[C@@H](O)[C@H](O)[C@H](O)CP(=O)(O)O | > 3000 µM |  |  |  |  | 
O=C(O)CC[C@H]1OC(O)[C@@H](O)[C@@H](O)[C@@H]1O (some centres not stated) | 4600 µM | 900 µM |  |  |  | 
NNC(=O)[C@@H](O)[C@H](O)[C@H](O)CCP(=O)(O)O | > 3000 µM |  |  |  |  | 
O=C(O)C(C[C@H]1OC(O)[C@@H](O)[C@@H](O)[C@@H]1O)C(=O)O (some centres not stated) | 199 µM | 18.1 µM | 10.5 µM | 115 µM | Active | Active
O=C(NO)[C@@H](O)[C@H](O)[C@H](O)CCP(=O)(O)O.ONO.ONO.ONO | 370 µM | 2200 µM |  |  |  | 
